Measurements published in patent US20220395549A1, “COMPOSITIONS OF THE OLEA EUROPAEA V. SYLVESTRIS WITH ANTIMICROBIAL EFFICACY” (TAPROGGE GMBH, priority 2019, published 2022).

System: S. aureus ATCC 6538
Assay: quantitative suspension assay of mono-substances
Assay type: cell-based, Staphylococcus aureus
Conditions: for Number of CFUs: initial cell load 9.9 × 10^4 CFU/ml
Protocol: A stock solution was prepared by adding 0.1 ml methanol to 10.48 mg of hydroxytyrosol. After dissolving of the compound, the solution was quantitatively transferred into 4.9 ml water for injection (WFI), effective concentration of hydroxytyrosol: 2.0 mg/ml.
Using the stock solution, five (5) concentrations of hydroxytyrosol in a geometric series of 2 mg hydroxytyrosol/ml to 0.125 mg hydroxytyrosol/ml were tested in a quantitative suspension assay.
2 ml of the stock solution and the dilutions (V1 to V4), respectively, and a methanol-solution of 2% as a positive control were inoculated with 0.1 ml of a test suspension of S. aureus ATCC 6538, adjusted to about 2.0×10^5 CFU/0.1 ml, resulting in about 100,000 CFU/ml in the individual assays.
Samples (0.1 ml) were then taken at t 0, 12, 30, and 60 minutes as well as t 24 48, and 72 hours after inoculation and culturing at between 20-25° C., and were diluted with 0.9 ml of 0.9% NaCl solution. The samples were plated on blood agar plates, and incubated up to 5 days at between 30-35° C.
A stock solution was prepared at a concentration of 2 mg/ml of oleocanthal. The compound was dissolved by in ethanol (99.8%) and WFI was added.
Using the stock solution, concentrations of oleocanthal in a geometric series of 1 mg oleocanthal/ml to 0.125 mg oleocanthal/ml were tested in a quantitative suspension assay.
2 ml of the stock solution and the dilutions (V1 to V4), respectively, and a ethanol-solution of 2.85% as a positive control were inoculated with 0.055 ml of a test suspension of S. aureus ATCC 6538, adjusted to about 3.6×10^5 CFU/0.1 ml, resulting in about 99,000 CFU/ml in the individual assays.
A stock solution was prepared at a concentration of 1 mg/ml of oleacin. The compound was dissolved by in ethanol (99.8%) and WFI was added.
Using the stock solution, concentrations of oleacin at 0.25 mg oleacin/ml and 0.125 mg oleacin/ml were tested in a quantitative suspension assay.
2 ml of the stock solution and the dilutions (V1 and V2), respectively, and a ethanol-solution of 0.44% as a positive control were inoculated with 0.055 ml of a test suspension of S. aureus ATCC 6538, adjusted to about 3.5×10^5 CFU/0.1 ml, resulting in about 99,000 CFU/ml in the individual assays.
A stock solution was prepared by adding 0.1 ml chloroform to 25 mg of uvaol. After dissolving of the compound, the solution was quantitatively transferred into 12.4 ml water for injection (WFI), effective concentration of uvaol: 2.0 mg/ml.
Using the stock solution, five (5) concentrations of uvaol in a geometric series of 2 mg uvaol/ml to 0.125 mg uvaol/ml were tested in a quantitative suspension assay.
2 ml of the stock solution and the dilutions (V1 to V4), respectively, and a chloroform-solution of 0.8% as a positive control were inoculated with 0.1 ml of a test suspension of S. aureus ATCC 6538, adjusted to about 2.0×10^5 CFU/0.1 ml, resulting in about 100,000 CFU/ml in the individual assays.
A stock solution was prepared by adding 0.1 ml chloroform to 10.45 mg of erythrodiol. After dissolving of the compound, the solution was quantitatively transferred into 4.9 ml water for injection (WFI), effective concentration of erythrodiol: 2.0 mg/ml.
2 ml of the stock solution and the dilutions (V1 to V4), respectively, and a chloroform-solution of 2% as a positive control were inoculated with 0.1 ml of a test suspension of S. aureus ATCC 6538, adjusted to about 3.6×10^5 CFU/0.1 ml, resulting in about 100.000 CFU/ml in the individual assays.

`CC=C(C=O)C(CC=O)CC(=O)OCCc1ccc(O)c(O)c1` (stereo in doubt) [oleacin] was tested, and the “Number of CFUs” value (0.125 Oci/ml, t 0 min) was 4.3 × 10^3 CFU/ml, the “Number of CFUs” value (0.125 Oci/ml, t 12 min) was less than 100 CFU/ml and the “Number of CFUs” value (0.125 Oci/ml, t 30 min) was less than 100 CFU/ml. The “Number of CFUs” value (0.125 Oci/ml, t 60 min) was less than 100 CFU/ml, the “Number of CFUs” value (0.125 Oci/ml, t 24 h) was less than 100 CFU/ml and the “Number of CFUs” value (0.125 Oci/ml, t 48 h) was less than 100 CFU/ml. For the same compound, the “Number of CFUs” value (0.125 Oci/ml, t 72 h) was less than 100 CFU/ml, the “Number of CFUs” value (0.25 Oci/ml, t 0 min) was 1.8 × 10^3 CFU/ml and the “Number of CFUs” value (0.25 Oci/ml, t 12 min) was less than 100 CFU/ml. For the same compound, the “Number of CFUs” value (0.25 Oci/ml, t 30 min) was less than 100 CFU/ml, the “Number of CFUs” value (0.25 Oci/ml, t 60 min) was less than 100 CFU/ml and the “Number of CFUs” value (0.25 Oci/ml, t 24 h) was less than 100 CFU/ml. For the same compound, the “Number of CFUs” value (0.25 Oci/ml, t 48 h) was less than 100 CFU/ml, the “Number of CFUs” value (0.25 Oci/ml, t 72 h) was less than 100 CFU/ml and the “antimicrobial effect, summary in words” value (detection limit of the assay 100 CFU/ml) was “immediate effect at the concentrations tested”.
